Data: article PMC7038073, “Substituted Piperazines as Novel Potential Radioprotective Agents” (Molecules, 2020)
“Also recorded” adds a separate entry of the source. Structures can show the parent of a compound that is named as a salt.

Columns and labels:
[1] = WST-1 cytotoxicity test, Jurkat; format: cell-based; settings: human, Jurkat cells, 48 h, WST-1, mean ± SD of three experiments, read-out: relative viability (%) compared to untreated control
Protocol: (§1) In this study, the cytotoxic effects of nine new compounds (2, 3, 4, 5, 6, 7, 8, 9, 10) were tested on 10 human cell lines (nine cancer and one non-cancer cell line). The cell lines were treated with each compound at concentrations of 10 µM and 100 µM for 48 h. The proliferation capacity of the treated cells was determined by WST-1 test and compared against the proliferation rate of the untreated control cells (100%).
(§2) The cell lines Jurkat, MOLT-4, A2780, A549, HT-29, PANC-1, HeLa, MCF-7, SAOS-2, and MRC-5 (all purchased from Sigma Aldrich, Czech Republic) were included in this study. All cell lines were maintained according to the provider’s guidelines, and plated and treated in 96-well plates (500 to 30 × 10^3 cells per well). The tested compounds 2, 3, 4, 5, 6, 7, 8, 9, and 10 were dissolved in 0.1% DMSO and kept in 10 mM stock solutions. Before use, the stock solution was diluted in culture media at ratios of 1:100 and 1:1000. The studied cell lines were treated with the compounds 2, 3, 4, 5, 6, 7, 8, 9, and 10 at concentrations of 10 and 100 µM for 48 h. Control cells were tested in culture media with and without DMSO (0.1%). The cells were also treated with 1 µM doxorubicin as a cytotoxicity control.
(§3) The WST-1 (2-(4-iodophenyl)-3-(4-nitrophenyl)-5-(2,4-disulfophenyl)-2H-tetrazolium, monosodium salt) test (Roche, Mannheim, Germany) was used according to the manufacturer’s protocol to determine cell viability in all 10 cell lines 48 h after treatment with the tested compounds. The cells were analyzed in a Tecan Infinite M200 spectrometer (Tecan Group, Männedorf, Switzerland) at 440 nm.

[2] = WST-1 cytotoxicity test, A549; format: cell-based; settings: human, A549 cells, 48 h, WST-1, mean ± SD of three experiments, read-out: relative viability (%) compared to untreated control; for viability at 48 h, 10 µM: A549, 10 µM; for viability at 48 h, 100 µM: A549, 100 µM
Protocol: as §1, §2, §3

[3] = WST-1 cytotoxicity test, PANC-1; format: cell-based; settings: human, PANC-1 cells, 48 h, WST-1, mean ± SD of three experiments, read-out: relative viability (%) compared to untreated control; for viability at 48 h, 10 µM: PANC-1, 10 µM; for viability at 48 h, 100 µM: PANC-1, 100 µM
Protocol: as §1, §2, §3

[4] = WST-1 cytotoxicity test, A2780; format: cell-based; settings: human, A2780 cells, 48 h, WST-1, mean ± SD of three experiments, read-out: relative viability (%) compared to untreated control; for viability at 48 h, 10 µM: A2780, 10 µM; for viability at 48 h, 100 µM: A2780, 100 µM
Protocol: as §1, §2, §3

[5] = WST-1 cytotoxicity test, MCF-7; format: cell-based; settings: human, MCF-7 cells, 48 h, WST-1, mean ± SD of three experiments, read-out: relative viability (%) compared to untreated control; for viability at 48 h, 10 µM: MCF-7, 10 µM; for viability at 48 h, 100 µM: MCF-7, 100 µM
Protocol: as §1, §2, §3

MOLT-4 cells = assay: Radioprotection in vitro, Annexin V/PI flow cytometry after irradiation; format: cell-based, human; settings: 60-min pre-treatment, 1 Gy; for viability at 100 µM: Homo sapiens, MOLT-4, light or radiation study, 24 h following irradiation, irradiated untreated 40%, non-irradiated control 92%, read-out: percentage of viable MOLT-4 cells (Annexin V and PI negative) after irradiation; for radioprotective effect in vitro (in words): 100 μM, MOLT-4
Description: Phosphatidylserine, a major component of the inner leaflet of the cytoplasmic membrane bilayers, is frequently used as an indicator of cell death. The externalization of this phospholipid can be detected through Annexin V, which binds to phosphatidylserine in the presence of calcium. Cell viability was quantified by Annexin V-Alexa Fluor® 488/propidium iodide (PI) staining and flow cytometry analysis to determine whether the tested compounds could prevent radiation-induced cell death in MOLT-4 cells. The percentage of viable cells was 92% for non-irradiated control (0.1% DMSO vehicle) and 40% for untreated irradiated cells (1 Gy) (Figure 2A).
Fresh 50 mM stock solutions of the compounds were prepared in DMSO (Sigma-Aldrich, St. Louis, MO, USA) before use in the study. For the radioprotection experiments, MOLT-4 cells were treated with 100 μM solutions of the novel compounds and irradiated after 60 min with a ^60Co γ-ray source (Chisotron Chirana, Prague, Czech Republic). The non-irradiated and irradiated control cells were treated with DMSO vehicle only (0.1%) and handled in parallel with the experimental cells. Non-irradiated control cells were handled in the same manner. Cell viability was determined by flow cytometry using an Alexa Fluor® 488 Annexin V/Dead Cell Apoptosis kit (Life Technologies, Grand Island, NY, USA) according to the manufacturer’s instructions. The Alexa Fluor® 488 Annexin V/Dead Cell Apoptosis kit employs the property of Alexa Fluor® 488 conjugated to Annexin V to bind to phosphatidylserine in the presence of Ca^2+, and the property of propidium iodide (PI) to enter cells with damaged cell membranes and bind to DNA. Measurement was performed using a CyAn (Beckman Coulter, Miami, FL, USA) flow cytometer. Listmode data was analyzed with the Kaluza Analysis v1.3 software (Beckman Coulter, Miami, FL, USA).

A549 cells = assay: MTT assay, IC50 and MTC; settings: for IC50 fold higher than that for compound 2 / MTC (maximum tolerated concentration): A549 cells, MTT; for MTC (maximum tolerated concentration): 24 h of treatment; for IC50: Homo sapiens, A549, 24 h, read-out: IC50 ± SEM
Protocol: In further experiments, MTT (3-(4,5-di-methylthiazol-2-yl)-2,5-diphenyltetrazolium bromide) assay was employed to evaluate the toxicological indexes of the newly synthesized compounds, including IC50 (half-maximal inhibitory concentration) and MTC (maximum tolerated concentration).
IC50 and MTC were determined through MTT assays. The MTT assay was performed according to [35]. In brief, the A549 cell line was plated in 96-well plates (100 µL, 9 × 10^3 cells per well) and incubated overnight. The tested compounds were prepared in phosphate buffer saline (PBS; Sigma–Aldrich) and serially diluted in DMEM (Dulbecco’s Modified Eagle Medium). An untreated control was included as a viability standard in each plate. After 24 h of treatment, the viability of A549 cells was measured at 570 nm. All experiments were performed in triplicate. The GraphPad Prism statistics software v5.04 (GraphPad Software Inc., San Diego, CA, USA) was used to calculate the IC50 values for parameter nonlinear regression. Values are expressed as mean ± SEM.

Solubility (in words) = format: physicochemical

SMILES | viability at 48 h, 10 µM [1] | viability at 48 h, 100 µM [1] | viability at 48 h, 10 µM [2] | viability at 48 h, 100 µM [2] | viability at 48 h, 10 µM [3] | viability at 48 h, 100 µM [3] | viability at 48 h, 10 µM [4] | viability at 48 h, 100 µM [4] | viability at 48 h, 10 µM [5] | viability at 48 h, 100 µM [5] | viability at 100 µM (MOLT-4 cells) | IC50 fold higher than that for compound 2 (A549 cells) | MTC (maximum tolerated concentration) (A549 cells) | IC50 (A549 cells) | radioprotective effect in vitro (in words) (MOLT-4 cells) | solubility (in words) (Solubility (in words))
Cc1cc(OCC(O)CN2CCN(CCO)CC2)ccc1Cl.Cl.Cl (stereo not drawn) [Compound 4, 1-(4-chloro-3-methylphenoxy)-3-(4-(2-hydroxyethyl)piperazin-1-yl)propan-2-ol dihydrochloride] | 105 ± 5% | 89 ± 1% | 100 ± 4% | 99% | 97 ± 7% | 111 ± 24% | 98 ± 2% | 89 ± 1% | 105 ± 4% | 90 ± 3% | 61% | 16.0 fold | 0.05 mM | 640 ± 30 µM | – | –
Cl.Cl.Cl.OCCN1CCN(CCCNc2ccccc2)CC1 [Compound 5, 2-(4-(3-(phenylamino)propyl)piperazin-1-yl)ethanol trihydrochloride] | 98 ± 4% | 98 ± 3% | 86 ± 7% | 104 ± 8% | 86 ± 16% | 115 ± 7% | 93 ± 5% | 105 ± 8% | 101 ± 6% | 106 ± 1% | 59% | 33.8 fold | 0.05 mM | 1350 ± 120 µM | did not show statistically significant radioprotective effect | –
Cl.Cl.Cl.OCCN1CCN(CCCNc2cccc3ccccc23)CC1 [Compound 6, 2-(4-(3-(naphthalen-1-ylamino)propyl)piperazin-1-yl)ethanol trihydrochloride] | 101 ± 1% | 93 ± 2% | 103 ± 7% | 93 ± 3% | 92 ± 11% | 111 ± 5% | 74 ± 3% | 95 ± 4% | 102 ± 8% | 94 ± 9% | 69% | 11.3 fold | 0.02 mM | 450 ± 10 µM | – | –
COc1ccc(NCCCN2CCN(CCO)CC2)cc1.Cl.Cl.Cl [Compound 7, 2-(4-(3-((4-methoxyphenyl)amino)propyl)piperazin-1-yl)ethanol trihydrochloride] | 100 ± 5% | 96% | 95 ± 5% | 115% | 99 ± 10% | 116 ± 3% | 94 ± 3% | 91 ± 2% | 105 ± 6% | 104 ± 6% | 64% | 63.8 fold | 0.39 mM | 2550 ± 210 µM | – | –
OCCN1CCN(CC(O)CN2CCN(CCO)CC2)CC1 [Compound 8, 1.3-bis [4-(2-hydroxyethyl)piperazin-1-yl)propan-2-ol tetrahydrochloride] | 103 ± 5% | 96 ± 13% | 97 ± 5% | 111 ± 11% | 98 ± 9% | 117 ± 11% | 104 ± 4% | 76 ± 10% | 101 ± 5% | 96 ± 7% | 57% | 625 fold | 6.25 mM | > 25000 µM | – | excellently soluble in media
Cl.Cl.OC(CNc1ccccc1)CNc1ccccc1 [Compound 9, 1,3-bis(phenylamino)propan-2-ol dihydrochloride] | 104 ± 5% | 79 ± 11% | 107 ± 11% | 98 ± 13% | 93 ± 12% | 118 ± 5% | 90 ± 3% | 64 ± 5% | 100 ± 4% | 98 ± 11% | 34% | 6.0 fold | 0.09 mM | 240 ± 10 µM | no significant radioprotective effect | low solubility; also recorded: insufficiently soluble for necessary concentrations
Cl.Cl.Cl.OCCN1CCN(CC(O)CNc2ccccc2)CC1 (stereo not drawn) [Compound 10, 1-(phenylamino]-3-[4-(2-hydroxyethyl)piperazin-1-yl)propan-2-ol trihydrochloride] | 108 ± 7% | 95 ± 4% | 105 ± 9% | 105 ± 2% | 95 ± 7% | 111 ± 6% | 103 ± 6% | 96 ± 2% | 98 ± 2% | 96 ± 6% | 51% | 126.5 fold | 1.56 mM | 5060 ± 230 µM | – | –
